Reference: US8013170B2, “Substituted pyrrolo[1,2-d][1,4]-diazonines and treatment of brain damage” (priority 2003, dated 2011)
Entries after “also recorded” stand apart in the source; their conditions may differ. Like-named read-outs stand apart in the source and are kept apart here.

How the values were obtained:
[1] = rcm bond
[2] = test system: cerebellar explants; experiment: Cerebellar microexplants exposed to glutamate and 3-nitropropionic acid; live neurons with neurites counted; type: cell-based, rat; details: for numbers of cells having neurites: administered simultaneously with glutamate (1 mM) and 3-nitropropionic acid (0.5 mM), final concentrations 1-100 nM, postnatal day 8 Wistar rat cerebellar microexplants; for recovery from / prevention of glutamate-induced neurotoxicity: compound applied simultaneously, 1-100 nM
Procedure: To determine the effects of the compounds of the invention on neuronal cells in vitro, a series of studies was carried out using cerebellar explants from […]. In vitro systems are suitable for studying neuronal proliferation, neurite growth, formation of nerve bundles and effects of toxins on neural cells, effects that parallel effects observed in vivo. Thus, results of studies using in vitro cerebellar explants are predictive of effects of interventions in vivo.
In a first series of studies, effects of glutamate on cerebellar explants were determined. At physiological concentrations, glutamate is a neurotransmitter in the CNS of mammals, including humans. However, at sufficiently high concentrations, glutamate is neurotoxic, resulting in neuronal cell death. Because glutamate is a naturally occurring neurotransmitter in the CNS of mammals, including humans, and because glutamate neurotoxicity is recognized in the art as reflective of neurotoxicity in general, and including cell death and degeneration, it is a valuable tool useful for identifying and characterizing agents effective in treatment of neurodegeneration and neural cell death.
Cover slips were placed into a large Petri dish and washed in 70% alcohol for 5 minutes, then washed with Millipore H2O. The cover slips were air dried, and coated with Poly-D-Lysine (1 mg/ml stock solution in PBS, 90-100 μl) for 2 hours at 34° C.
Postnatal day 8 Wistar rats were used for the study. The rats were sacrificed and placed in ice for 1 minute, decapitated and the cerebellum removed and placed on ice. Cerebellum tissue was placed in 1 ml of 0.65% glucose-supplemented PBS (10 μl 65% stock D (+)glucose/1 ml PBS) in a large Petri dish, chopped up into smaller sections and triturated with a 1 ml insulin syringe via a 23 G (0.4 mm) needle, and then squirted back into the glucose solution in the large Petri dish. The tissue was sieved through (125 μm pore size gauze) and centrifuged (2 minutes at 60 g) twice to exchange the medium into serum-free BSA-supplemented START V medium (Biochrom, Germany). The second centrifugation step was done with 1 ml of START V medium. The microexplants were reconstituted into 500 μl of START V medium and put on ice.
Two hours after PDL-coating, the slides were washed with Millipore H2O and air dried. Each slide was placed into a small Petri dish (diameter: 35 mm) and 40 μl of START V/cell suspension was added. The tissue was incubated for 2 hours at 34° C. (settlement period). START V-medium (1 ml) was then added to the Petri dish and cultivated at 34° C. in the presence of 5% CO2 in air at 100% humidity for 48 hours.
For the study, certain explant cultures were exposed to vehicle (PBS) only. In the first study (Study 1) 10 μl of toxin 1 (L-glutamate-100 mM in Millipore water; final concentration: 1 mM) and 10 μl of toxin 2 (3-nitropropionic acid-50 mM- pH 7- in Millipore water, final concentration: 0.5 mM) was applied simultaneously with the compounds to be tested (10 mM stock solution prepared in PBS and diluted to final concentrations between 1-100 nM). […]
Neurons in the explants were then evaluated for morphology (presence of neurites) and counted as live cells per microscopic field. Four fields displaying highest cell density were counted per cover slip and the data presented as mean±standard error of the mean (SEM); n=4 each. Statistical significance was evaluated by using the non-paired Student's t-test.

[3] = test system: rats exposed to hypoxic-ischemic injury (HI); experiment: Hypoxic-ischemic injury (modified Levine model), histological tissue damage score; type: in vivo, rat; details: 100 pM icv, 20 μl over 20 minutes, 2 hours after hypoxic-ischemic insult; histology 5 days after injury; adult male Wistar rats; compared to vehicle treated group, p<0.001
Procedure: To determine whether compounds of the invention might prevent neuronal injury in response to stroke, cardiac arterial bypass graft surgery (CABG) or other hypoxic insults, a series of studies were carried out in rats that had been exposed to hypoxic-ischemic injury (HI). Adult rats (Wistar, 280-310 g, male) were used. The modified Levine model preparation and experimental procedures were used (Rice et al, 1981, Ann. Neurol.: 9: 131-141; Guan et al J., 1993, Cereb. Blood Flow Metab.: 13(4): 609-16). These procedures in brief, consist of an HI injury induced by unilateral carotid artery ligation followed by inhalational asphyxia in the animals with an implanted lateral ventricular cannula. A guide cannula was stereotaxically placed on the top of the dura 1.5 mm to the right of the mid-line and 7.5 mm anterior to the interaural zero plane under halothane anaesthesia. […]
Coronal sections 8 μm in thickness were cut from the striatum, cerebral cortex and hippocampus and were stained with thionin and acid fuchsin. The histological outcome was assessed at three levels: (1) the mid level of the striatum, (2) where the completed hippocampus first appeared and (3) the level where the ventral horn of the hippocampus just appears. The severity of tissue damage was scored in the striatum, cortex and the CA1-2, CA3, CA4 and dentate gyrus of the hippocampus. […]

Compound: CC(C)(C)OC(=O)[C@@H]1CC[C@@H]2CC=CCN(C(=O)OCc3ccccc3)CC(=O)N21
- ring closure, yield of all isomers ([1]; from C=CC[C@H]1CC[C@@H](C(=O)OC(C)(C)C)N1C(=O)CN(CC=C)C(=O)OCc1ccccc1, Grubbs I (bis(tricyclohexylphosphine)benzylideneruthenium dichloride), dichloromethane, 4.03 mM, 40.0 °C, 48.0 h): 46%

Compound: CC(C)(C)OC(=O)[C@@H]1CC[C@H]2CC=CCN(C(=O)OCc3ccccc3)CC(=O)N21
- ring closure, yield of all isomers ([1]; from C=CC[C@@H]1CC[C@@H](C(=O)OC(C)(C)C)N1C(=O)CN(CC=C)C(=O)OCc1ccccc1, bis(tricyclohexylphosphine)benzylidineruthenium dichloride (Grubbs I), dichloromethane, 4.1 mM, 40.0 °C, 48.0 h): 42%

Compound: O=C(O)[C@@H]1CCCCNCC(=O)N2CCC[C@H]2C(=O)N[C@H](C(=O)O)C1
- ring closure, yield of all isomers ([1]; from C=CC[C@H](C[C@H](NC(=O)[C@@H]1CCCN1C(=O)CN(CC=C)C(=O)OCc1ccccc1)C(=O)OCc1ccccc1)C(=O)OCc1ccccc1, Grubbs II generated in situ (bis(tricyclohexylphosphine)benzylideneruthenium dichloride + SIMes.HBF4/KOtBu), benzene, 2.27 mM, 45.0 °C, 65.0 h, 2 steps): 58%

Compound: N[C@@H](CCC(=O)O)C(=O)O [Glutamate, L-glutamate, reference compound]
- loss of cerebellar neurons having neurites ([2]; glutamate 1 mM, compared to vehicle-treated controls): ~80%

Compound: N[C@H]1CCCC[C@@H]2CC[C@@H](C(=O)N[C@@H](CCC(=O)O)C(=O)O)N2C1=O.O=C(O)C(F)(F)F [compound 48, (2S, 3′S, 8′R, 11′S) 2-{[(3′-Amino-1′-aza-2′-oxobicyclo[6.3.0]-undecyl)-11′-carbonyl]amino}-1,5-pentanedioic acid trifluoroacetate salt]
- numbers of cells having neurites [2]: significantly increased the numbers of cells having neurites in a dose-dependent manner
- recovery from / prevention of glutamate-induced neurotoxicity ([2]; glutamate 1 mM, trifluoroacetate salt): significant recovery; also recorded: prevented glutamate-induced neurotoxicity

Compound: O=C(O)C(F)(F)F.O=C(O)CC[C@H](NC(=O)[C@@H]1CC[C@@H]2CCCCNCC(=O)N21)C(=O)O [compound 68, (2S, 9′S, 12′S)-2-{[(1′,4′-Diaza-2′-oxobicyclo[7.3.0]dodecyl)-12′-carbonyl]amino}-1,5-pentanedioic acid trifluoroacetate]
- numbers of cells having neurites [2]: significantly increased the numbers of cells having neurites in a dose-dependent manner
- recovery from / prevention of glutamate-induced neurotoxicity ([2]; glutamate 1 mM): significant recovery; also recorded: prevented glutamate-induced neurotoxicity
- tissue damage (damage score) in striatum, cortex and hippocampus [3]: significantly reduced the tissue damage in each brain region examined
